According to patent publication US20110243924A1, “NOVEL METHODS” (priority 2007, published 2011):

Legend:
[1] = In vitro stability in human plasma; type: in vitro ADME; details: human plasma (lithium heparin), 36° C.
Protocol: The in vitro experiments are carried out at 36° C. and at a concentration of 5 μg/ml (6 μl of a 1 mg/ml dimethyl sulfoxide solution of each substance is added to a final volume of 1.2 ml). After 3 minutes of pre-incubation, reaction is started by addition of the test substances. At pre-defined times of 0, 5, 15, 30 and 60 min., aliquots of 100 μl of the plasma are separated and the reaction stopped by the addition of 1 ml of a 20 mM, pH 4.0 sodium acetate buffer solution. The test substances are replaced with buffer for the control reactions. Human plasma is obtained from volunteers by written informed consent. The blood is collected in tubes containing lithium heparin as anticoagulant, immediately centrifuged at 4° C. and the resultant plasma stored at −20° C. when not in use.
Plasma samples, previously diluted with 1 ml of a 20 mM, pH 4.0 sodium acetate buffer solution, were loaded into the C2 cartridges. […] There are no significant endogenous peaks at retention times of the analytes that would interfere with their quantitation. […] The lower limit of quantitation is established at 5 mg/ml for all analytes.

[2] = Stability in aqueous solutions; type: physicochemical; details: pH≦4
Protocol: (§1) Aclidinium is rapidly hydrolyzed in human plasma in its alcohol and acid metabolites. […] The plasma half life of aclidinium in plasma is lower than 5 minutes for human. Moreover, aclidinium is stable in acid aqueous solutions (pH≦4) and the hydrolytic cleavage of the ester bond takes place at neutral and basic pHs.

[3] = tested on: healthy male volunteers; assay: Clinical Phase I study, single inhaled doses by dry powder inhaler; type: in vivo, human
Protocol: Clinical Phase I study: Aclidinium bromide is tested in a Phase I, double-blind, partial cross-over, placebo controlled study to assess the activity, pharmacokinetics and tolerability of aclidinium.
Methods: 12 healthy male volunteers are randomly assigned to 1 of 4 treatment sequences comprising single doses of aclidinium (50, 300 and 600 micrograms) or placebo administered by dry powder inhaler. The washout period between administrations is at least 6 days. Efficacy endpoints are specific airway conductance (sGaw), airway resistance (Raw) and bronchial hyperresponsiveness (PC35 sGaw methacholine).

[4] = tested on: Men with COPD; assay: Clinical Phase II study, single inhaled doses by dry powder inhaler; type: in vivo, human; details: for mean FEV1 AUC(0-24)/24: placebo 1.597 L
Text: Clinical Phase […] study: A double-blind, randothised, placebo-controlled, cross-over trial assesses the pharmacodynamics, pharmacokinetics and tolerability of aclidinium and its effects in COPD patients
Lung function measurements include FEV1 and FVC.

[5] = target: T1, M1 human muscarinic receptor (Homo sapiens, UniProt P11229); assay: Binding of aclidinium metabolites to muscarinic receptors
T1 sequence (P11229 1-460): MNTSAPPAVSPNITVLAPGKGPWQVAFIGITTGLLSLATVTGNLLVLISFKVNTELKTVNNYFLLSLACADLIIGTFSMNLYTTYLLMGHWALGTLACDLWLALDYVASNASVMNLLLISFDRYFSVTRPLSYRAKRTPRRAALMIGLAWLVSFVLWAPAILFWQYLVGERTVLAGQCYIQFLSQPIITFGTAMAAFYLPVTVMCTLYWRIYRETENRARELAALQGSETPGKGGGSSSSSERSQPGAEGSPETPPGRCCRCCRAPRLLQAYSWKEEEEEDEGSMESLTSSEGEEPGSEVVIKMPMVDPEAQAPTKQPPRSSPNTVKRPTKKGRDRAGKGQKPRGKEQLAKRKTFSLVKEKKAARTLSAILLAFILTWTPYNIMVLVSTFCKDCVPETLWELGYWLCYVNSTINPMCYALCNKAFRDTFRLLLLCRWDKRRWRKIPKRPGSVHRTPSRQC
Protocol: as §1

[6] = target: T2, M2 human muscarinic receptor (Homo sapiens, UniProt P08172); assay: as above
T2 sequence (P08172 1-466): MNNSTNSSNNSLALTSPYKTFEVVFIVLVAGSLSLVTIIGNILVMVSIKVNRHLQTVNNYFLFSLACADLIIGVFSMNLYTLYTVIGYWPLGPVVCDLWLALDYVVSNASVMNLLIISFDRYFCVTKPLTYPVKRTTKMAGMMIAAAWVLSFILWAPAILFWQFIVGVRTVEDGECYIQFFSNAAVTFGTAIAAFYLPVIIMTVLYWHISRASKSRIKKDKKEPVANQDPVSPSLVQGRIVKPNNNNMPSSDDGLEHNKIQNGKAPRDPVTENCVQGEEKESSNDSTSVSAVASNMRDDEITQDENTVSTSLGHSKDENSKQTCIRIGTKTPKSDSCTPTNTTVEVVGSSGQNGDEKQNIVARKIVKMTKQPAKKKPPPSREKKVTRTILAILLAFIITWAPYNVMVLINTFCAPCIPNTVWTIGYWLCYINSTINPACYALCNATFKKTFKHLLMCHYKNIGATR
Protocol: as §1

[7] = target: M3 human muscarinic receptor (Homo sapiens, UniProt P20309); assay: as above
Protocol: as §1

[8] = target: T3, M4 human muscarinic receptor (Homo sapiens, UniProt P08173); assay: as above
T3 sequence (P08173 1-479): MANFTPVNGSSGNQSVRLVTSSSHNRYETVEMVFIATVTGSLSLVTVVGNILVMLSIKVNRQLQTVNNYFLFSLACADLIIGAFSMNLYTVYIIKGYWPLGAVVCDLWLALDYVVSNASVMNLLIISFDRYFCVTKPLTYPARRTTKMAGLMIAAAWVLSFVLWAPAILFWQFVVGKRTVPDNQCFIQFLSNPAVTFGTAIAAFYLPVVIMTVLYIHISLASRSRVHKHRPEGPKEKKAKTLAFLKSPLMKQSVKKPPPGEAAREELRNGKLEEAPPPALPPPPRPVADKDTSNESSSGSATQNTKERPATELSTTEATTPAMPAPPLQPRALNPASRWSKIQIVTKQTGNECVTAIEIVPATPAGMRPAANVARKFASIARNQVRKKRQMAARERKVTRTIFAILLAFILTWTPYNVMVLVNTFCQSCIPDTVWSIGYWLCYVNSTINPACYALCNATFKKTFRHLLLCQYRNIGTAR
Protocol: as §1

[9] = after inhaled single doses 100, 300, 900 micrograms

M3 human muscarinic receptor, sequence (P20309 whole entry): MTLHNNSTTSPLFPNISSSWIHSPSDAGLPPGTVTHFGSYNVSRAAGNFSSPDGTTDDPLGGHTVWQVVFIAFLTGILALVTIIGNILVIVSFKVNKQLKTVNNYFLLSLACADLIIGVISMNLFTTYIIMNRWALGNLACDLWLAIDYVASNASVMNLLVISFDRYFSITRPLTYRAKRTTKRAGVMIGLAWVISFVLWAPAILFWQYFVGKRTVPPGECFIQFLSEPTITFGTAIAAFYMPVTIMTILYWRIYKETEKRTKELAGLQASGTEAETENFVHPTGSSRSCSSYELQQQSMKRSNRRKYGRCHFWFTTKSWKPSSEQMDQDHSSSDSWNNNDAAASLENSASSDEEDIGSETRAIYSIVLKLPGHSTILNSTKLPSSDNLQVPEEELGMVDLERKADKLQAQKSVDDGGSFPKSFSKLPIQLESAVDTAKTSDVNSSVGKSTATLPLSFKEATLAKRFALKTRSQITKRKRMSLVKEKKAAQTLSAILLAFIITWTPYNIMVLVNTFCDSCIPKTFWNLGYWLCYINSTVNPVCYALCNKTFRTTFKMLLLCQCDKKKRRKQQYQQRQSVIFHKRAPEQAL

With O=C(O[C@H]1C[N+]2(CCCOc3ccccc3)CCC1CC2)C(O)(c1cccs1)c1cccs1 [aclidinium, 3(R)-(2-hydroxy-2,2-dithien-2-ylacetoxy)-1-(3-phenoxypropyl)-1-azoniabicyclo[2.2.2]octane] the half-life at 5 μg/ml [1] was under 5 min, the “stability in acid aqueous solutions” value [2] was “stable” and the “PC35 sGaw methacholine (methacholine dose required to decrease sGaw)” value ([3]; aclidinium 300 micrograms, at 2 h, placebo 35.5) was 207.1 mg/mL. The “PC35 sGaw methacholine (methacholine dose required to decrease sGaw)” value ([3]; aclidinium 300 micrograms, at 24 h, placebo 27.1) was 142.7 mg/mL, the “PC35 sGaw methacholine (methacholine dose required to decrease sGaw)” value ([3]; aclidinium 600 micrograms, at 2 h, placebo 35.5) was 256.0 mg/mL and the “PC35 sGaw methacholine (methacholine dose required to decrease sGaw)” value ([3]; aclidinium 600 micrograms, at 24 h, placebo 27.1) was 181.7 mg/mL. The detection in plasma ([3]; after inhaled single doses 50-600 micrograms) was “Neither aclidinium nor its metabolites are detected”, the study-drug-related adverse events ([3]; single inhaled doses 50-600 micrograms) was “no study-drug-related adverse events” and the “mean FEV1 AUC(0-24)/24” value ([4]; aclidinium 100 micrograms, p=0.002) was 1.800 L. For the same molecule, the “mean FEV1 AUC(0-24)/24” value ([4]; aclidinium 300 micrograms, p<0.0001) was 1.798 L, the “mean FEV1 AUC(0-24)/24” value ([4]; aclidinium 900 micrograms) was 1.827 L and the plasma levels [4, 9] was “No plasma levels”. The “cases of mildly increased sweating possibly related to treatment” value ([4]; human, in vivo) was 1, the tolerability ([4]; single inhaled doses 100-900 micrograms) was “well tolerated” and the “cases of mild or moderate headache possibly related to treatment” value ([4]; vs 2 with placebo) was 6 cases.

For O=C(O)C(O)(c1cccs1)c1cccs1 [acid metabolite], the “affinity for M1 human muscarinic receptor” value [5] was “devoid of significant affinity”, the “affinity for M2 human muscarinic receptor” value [6] was “devoid of significant affinity” and the “affinity for M3 human muscarinic receptor” value [7] was “devoid of significant affinity”. For the same molecule, the “affinity for M4 human muscarinic receptor” value [8] was “devoid of significant affinity” and the plasma levels ([4]; following the 900 microgram dose) was “low levels”.

In the case of O[C@H]1C[N+]2(CCCOc3ccccc3)CCC1CC2 [alcohol metabolite], the “affinity for M1 human muscarinic receptor” value [5] is reported as “devoid of significant affinity”, the “affinity for M2 human muscarinic receptor” value [6] is reported as “devoid of significant affinity” and the “affinity for M3 human muscarinic receptor” value [7] is reported as “devoid of significant affinity”. The “affinity for M4 human muscarinic receptor” value [8] was “devoid of significant affinity” and the plasma levels [4, 9] was “No plasma levels”.
